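Grown in 96-well plates, cells were treated for 48 hours with each compound at five concentrations. Insufficient inhibition: endpoint recorded as highest concentration tested. Abbreviation: GI50, concentration required for 50% inhibition of growth. The concentration for full growth arrest is given as TGI.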
What was measured:
Assay in all cases: growth of human tumour cells (NCI), 48 h
[1] = system: 786-0 renal
[2] = system: A498 renal
[3] = system: A549 NSCLC
[4] = system: ACHN renal
[5] = system: BT-549 breast
[6] = system: CAKI-1 renal
[7] = system: CCRF-CEM leukemia
[8] = system: COLO 205 colon
[9] = system: DU-145 prostate
[10] = system: EKVX NSCLC
[11] = system: HCC-2998 colon
[12] = system: HCT-116 colon
[13] = system: HCT-15 colon
[14] = system: HL-60(TB) leukemia
[15] = system: HOP-62 NSCLC
[16] = system: HOP-92 NSCLC
[17] = system: HS 578T breast
[18] = system: HT29 colon
[19] = system: IGROV1 ovarian
[20] = system: K-562 leukemia
[21] = system: KM12 colon
[22] = system: LOX IMVI melanoma
[23] = system: M14 melanoma
[24] = system: MALME-3M melanoma
[25] = system: MCF7 breast
[26] = system: MDA-MB-231 breast
[27] = system: MDA-MB-435
[28] = system: MDA-MB-468 breast
[29] = system: MOLT-4 leukemia
[30] = system: NCI-H226 lung
[31] = system: NCI-H23 lung
[32] = system: NCI-H460 lung
[33] = system: NCI-H522 lung
[34] = system: OVCAR-3 ovarian
[35] = system: OVCAR-4 ovarian
[36] = system: OVCAR-5 ovarian
[37] = system: OVCAR-8 ovarian
[38] = system: PC-3 prostate
[39] = system: RPMI-8226 leukemia
[40] = system: RXF 393 renal
[41] = system: SF-268 CNS
[42] = system: SF-295 CNS
[43] = system: SF-539 CNS
[44] = system: SK-MEL-2 melanoma
[45] = system: SK-MEL-28 melanoma
[46] = system: SK-MEL-5 melanoma
[47] = system: SK-OV-3 ovarian
[48] = system: SN12C renal
[49] = system: SNB-19 CNS
[50] = system: SNB-75 CNS
[51] = system: SR leukemia
[52] = system: SW-620 colon
[53] = system: T-47D breast
[54] = system: TK-10 renal
[55] = system: U251 CNS
[56] = system: UACC-257 melanoma
[57] = system: UACC-62 melanoma
[58] = system: UO-31 renal

Compound: C=C1CC[C@@H]2[C@]3(C)COC(c4cn[nH]c4-c4ccccc4)O[C@@H]3CC[C@@]2(C)[C@@H]1C/C=C1/C(=O)OCC1O (stereo partly specified)
- GI50 [1]: 18.8 µM
- TGI [1]: 43 µM
- GI50 [2]: 30.9 µM
- TGI [2]: > 100 µM
- GI50 [3]: 17.3 µM
- TGI [3]: 51.8 µM
- GI50 [4]: 17.6 µM
- TGI [4]: 69.1 µM
- GI50 [5]: 15.2 µM
- TGI [5]: 43.3 µM
- GI50 [6]: 11.6 µM
- TGI [6]: 32.2 µM
- GI50 [7]: 4.83 µM
- TGI [7]: 42.5 µM
- GI50 [8]: 15 µM
- TGI [8]: 28.2 µM
- GI50 [9]: 13.8 µM
- TGI [9]: 35.4 µM
- GI50 [10]: 14.5 µM
- TGI [10]: 32.7 µM
- GI50 [11]: 15.8 µM
- TGI [11]: 29.3 µM
- GI50 [12]: 12.2 µM
- TGI [12]: 32.2 µM
- GI50 [13]: 13.2 µM
- TGI [13]: 27.2 µM
- GI50 [14]: 13.3 µM
- TGI [14]: 67.5 µM
- GI50 [15]: 16.1 µM
- TGI [15]: 35.6 µM
- GI50 [16]: 9.14 µM
- TGI [16]: 30.6 µM
- GI50 [17]: 9.81 µM
- TGI [17]: 54.7 µM
- GI50 [18]: 15.4 µM
- TGI [18]: 32.7 µM
- GI50 [19]: 17 µM
- TGI [19]: 42.8 µM
- GI50 [20]: 12.8 µM
- TGI [20]: > 100 µM
- GI50 [21]: 11.3 µM
- TGI [21]: 54.9 µM
- GI50 [22]: 10.9 µM
- TGI [22]: 25 µM
- GI50 [23]: 14.4 µM
- TGI [23]: 28.2 µM
- GI50 [24]: 13.2 µM
- TGI [24]: 30.5 µM
- GI50 [25]: 10.5 µM
- TGI [25]: 34.9 µM
- GI50 [26]: 15.8 µM
- TGI [26]: 32.8 µM
- GI50 [27]: 13.5 µM
- TGI [27]: 29.8 µM
- GI50 [28]: 9 µM
- TGI [28]: 32.6 µM
- GI50 [29]: 3.83 µM
- TGI [29]: 54.5 µM
- GI50 [30]: 16.1 µM
- TGI [30]: 37.8 µM
- GI50 [31]: 13.6 µM
- TGI [31]: 26.5 µM
- GI50 [32]: 15.3 µM
- TGI [32]: 32.3 µM
- GI50 [33]: 14.1 µM
- TGI [33]: 29.8 µM
- GI50 [34]: 11.1 µM
- TGI [34]: 37.5 µM
- GI50 [35]: 15.2 µM
- TGI [35]: 52 µM
- GI50 [36]: 19.2 µM
- TGI [36]: 37.7 µM
- GI50 [37]: 18 µM
- TGI [37]: 49.6 µM
- GI50 [38]: 12.2 µM
- TGI [38]: > 100 µM
- GI50 [39]: 8.39 µM
- TGI [39]: 93.8 µM
- GI50 [40]: 8.5 µM
- TGI [40]: 21.7 µM
- GI50 [41]: 18.5 µM
- TGI [41]: 75.4 µM
- GI50 [42]: 15.4 µM
- TGI [42]: 30.5 µM
- GI50 [43]: 15.6 µM
- TGI [43]: 30.3 µM
- GI50 [44]: 14.8 µM
- TGI [44]: 28.7 µM
- GI50 [45]: 13.7 µM
- TGI [45]: 26.8 µM
- GI50 [46]: 12.4 µM
- TGI [46]: 24.8 µM
- GI50 [47]: 22 µM
- TGI [47]: 63.5 µM
- GI50 [48]: 22 µM
- TGI [48]: 70 µM
- GI50 [49]: 15 µM
- TGI [49]: 28.5 µM
- GI50 [50]: 10.4 µM
- TGI [50]: 35.1 µM
- GI50 [51]: 21.2 µM
- TGI [51]: > 100 µM
- GI50 [52]: 14.4 µM
- TGI [52]: 33.3 µM
- GI50 [53]: 20.2 µM
- TGI [53]: > 100 µM
- GI50 [54]: 20.2 µM
- TGI [54]: 51.7 µM
- GI50 [55]: 14.3 µM
- TGI [55]: 28.6 µM
- GI50 [56]: 15.6 µM
- TGI [56]: 36.1 µM
- GI50 [57]: 13.5 µM
- TGI [57]: 28.7 µM
- GI50 [58]: 11.5 µM
- TGI [58]: 28 µM

From PubChem BioAssay (NCI)
